This assay addresses T1, human c-Met (Homo sapiens, UniProt P08581).
T1 construct: Recombinant GST-tagged cytosolic domains of human c-Met; 6xHis; made in house; host or cells: Sf9 or Sf21 insect cells (baculovirus)
Put plainly: in vitro kinase assay (homogeneous time-resolved tyrosine kinase assay, METKA). Particulars: recombinant GST-tagged c-Met cytosolic domain, HTRF, 50 μM MgATP; read-out: Biological Activity (METKA IC50) Activity Code. The format is biochemical. In short, it runs like this:
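HTRF assay with GST-tagged cytosolic c-Met domain (0.2 nM), 0.5 μM biotinylated peptide, 50 μM MgATP, pH 7.4, 5% DMSO, 80 min at room temperature; Eu-anti-pTyr/SA-APC detection, IC50 by 4-parameter fit. Other kinases identical except enzyme level: mouse c-Met 0.2, Ron 2.5, KDR 8, IGFR 0.24, EGFR 0.24, FGFR 0.14, Mer 16, TrkA 8, Tie2 8 nM.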
T1 sequence (P08581 956-1390 limits assumed): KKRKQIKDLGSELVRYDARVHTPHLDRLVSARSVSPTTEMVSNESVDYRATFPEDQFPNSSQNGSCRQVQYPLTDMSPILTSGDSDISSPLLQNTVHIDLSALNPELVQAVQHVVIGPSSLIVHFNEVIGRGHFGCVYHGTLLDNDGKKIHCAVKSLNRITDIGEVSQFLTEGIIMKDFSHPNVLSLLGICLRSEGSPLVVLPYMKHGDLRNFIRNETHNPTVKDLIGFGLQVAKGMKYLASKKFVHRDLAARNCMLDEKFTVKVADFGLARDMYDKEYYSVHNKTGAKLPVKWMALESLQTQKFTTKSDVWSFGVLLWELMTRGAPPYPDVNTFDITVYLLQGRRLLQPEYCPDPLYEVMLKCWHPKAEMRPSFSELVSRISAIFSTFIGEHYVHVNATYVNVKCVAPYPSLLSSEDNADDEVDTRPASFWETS
In the case of `CCc1cnc2ccc(OCc3nn(-c4cnn(C)c4)ccc3=O)cc2c1` [Example 72, 3-{[(3-ethylquinolin-6-yl)oxy]methyl}-1-(1-methyl-1H-pyrazol-4-yl)pyridazin-4(1H)-one], the IC50 was below 100 nM.

On to `COCc1cnc2ccc(OCc3nn(-c4cnn(C)c4)ccc3=O)cc2c1` [Example 73, 3-({[3-(methoxymethyl)quinolin-6-yl]oxy}methyl)-1-(1-methyl-1H-pyrazol-4-yl)pyridazin-4(1H)-one], for which the IC50 is below 100 nM.

Turning to `Cn1cc(-n2ccc(=O)c(COc3ccc4ncc(-c5cccnc5)cc4c3)n2)cn1` [Example 74, 1-(1-Methyl-1H-pyrazol-4-yl)-3-{[(3-pyridin-3-ylquinolin-6-yl)oxy]methyl}pyridazin-4(1H)-one], the IC50 is below 100 nM.

As to `Cn1cc(-c2cnc3ccc(OCc4nn(-c5cnn(C)c5)ccc4=O)cc3c2)cn1` [Example 75], the IC50 is below 100 nM.

With `CCn1cc(-n2ccc(=O)c(COc3ccc4ncc(-c5ccc(S(C)(=O)=O)cc5)cc4c3)n2)cn1` [Example 76, 1-(1-Ethyl-1H-pyrazol-4-yl)-3-[({3-[4-(methylsulfonyl)phenyl]quinolin-6-yl}oxy)methyl]pyridazin-4(1H)-one], the IC50 was below 100 nM.

With `CCn1cc(-n2ccc(=O)c(COc3ccc4ncc(-c5cnn(CCOC)c5)cc4c3)n2)cn1` [Example 77, 1-(1-ethyl-1H-pyrazol-4-yl)-3-[({3-[1-(2-methoxyethyl)-1H-pyrazol-4-yl]quinolin-6-yl}oxy)methyl]pyridazin-4(1H)-one], the IC50 is below 100 nM.

Take `CCn1cc(-n2ccc(=O)c(COc3ccc4ncc(-c5ccc(F)cc5)cc4c3)n2)cn1` [Example 78, 1-(1-ethyl-1H-pyrazol-4-yl)-3-({[3-(4-fluorophenyl)quinolin-6-yl]oxy}methyl)pyridazin-4(1H)-one]: the IC50 was below 100 nM.

Regarding `CCn1cc(-n2ccc(=O)c(COc3ccc4ncc(-c5ccc(OC)cc5)cc4c3)n2)cn1` [Example 79, 1-(1-ethyl-1H-pyrazol-4-yl)-3-({[3-(4-methoxyphenyl)quinolin-6-yl]oxy}methyl)pyridazin-4(1H)-one], the IC50 is below 100 nM.

Consider `CCn1cc(-n2ccc(=O)c(COc3ccc4ncc(-c5ccncc5)cc4c3)n2)cn1` [Example 80, 1-(1-ethyl-1H-pyrazol-4-yl)-3-{[(3-pyridin-4-ylquinolin-6-yl)oxy]methyl}pyridazin-4(1H)-one], for which the IC50 was below 100 nM.

Regarding `CCn1cc(-n2ccc(=O)c(COc3ccc4ncc(-c5ccc(C#N)nc5)cc4c3)n2)cn1` [Example 81, 5-(6-{[1-(1-ethyl-1H-pyrazol-4-yl)-4-oxo-1,4-dihydropyridazin-3-yl]methoxy}quinolin-3-yl)pyridine-2-carbonitrile], the IC50 was below 100 nM.

For the molecule `CCn1cc(-n2ccc(=O)c(COc3ccc4ncc(-c5ccc(OC)nc5)cc4c3)n2)cn1` [Example 82, 1-(1-ethyl-1H-pyrazol-4-yl)-3-({[3-(6-methoxypyridin-3-yl)quinolin-6-yl]oxy}methyl)pyridazin-4(1H)-one], the IC50 is below 100 nM.

Consider `CCn1cc(-n2ccc(=O)c(COc3ccc4ncc(-c5ccccc5F)cc4c3)n2)cn1` [Example 83, 1-(1-ethyl-1H-pyrazol-4-yl)-3-({[3-(2-fluorophenyl)quinolin-6-yl]oxy}methyl)pyridazin-4(1H)-one], for which the IC50 was below 100 nM.

For the molecule `CCn1cc(-n2ccc(=O)c(COc3ccc4ncc(-c5ccccc5C)cc4c3)n2)cn1` [Example 84, 1-(1-ethyl-1H-pyrazol-4-yl)-3-({[3-(2-methylphenyl)quinolin-6-yl]oxy}methyl)pyridazin-4(1H)-one], the IC50 was below 100 nM.

Regarding `CCn1cc(-n2ccc(=O)c(COc3ccc4ncc(-c5cncnc5)cc4c3)n2)cn1` [Example 85, 1-(1-ethyl-1H-pyrazol-4-yl)-3-{[(3-pyrimidin-5-ylquinolin-6-yl)oxy]methyl}pyridazin-4(1H)-one], the IC50 was below 100 nM.

Regarding `CCn1cc(-n2ccc(=O)c(COc3ccc4ncc(-c5cscn5)cc4c3)n2)cn1` [Example 86, 1-(1-ethyl-1H-pyrazol-4-yl)-3-({[3-(1,3-thiazol-4-yl)quinolin-6-yl]oxy}methyl)pyridazin-4(1H)-one], the IC50 is below 100 nM.

`CCn1cc(-n2ccc(=O)c(COc3ccc4ncc(-c5ccc(N6CCOCC6)nc5)cc4c3)n2)cn1` [Example 87, 1-(1-ethyl-1H-pyrazol-4-yl)-3-({[3-(6-morpholin-4-ylpyridin-3-yl)quinolin-6-yl]oxy}methyl)pyridazin-4(1H)-one]: the concentration for half-maximal inhibition (IC50) was below 100 nM.

For `CCn1cc(-n2ccc(=O)c(COc3ccc4ncc(-c5ccc(Cl)nc5)cc4c3)n2)cn1` [Example 88, 3-({[3-(6-chloropyridin-3-yl)quinolin-6-yl]oxy}methyl)-1-(1-ethyl-1H-pyrazol-4-yl)pyridazin-4(1H)-one], the IC50 is below 100 nM.

Consider `CCn1cc(-n2ccc(=O)c(COc3ccc4ncc(-c5ccc(C(F)(F)F)cc5)cc4c3)n2)cn1` [Example 89, 1-(1-ethyl-1H-pyrazol-4-yl)-3-[({3-[4-(trifluoromethyl)phenyl]quinolin-6-yl}oxy)methyl]pyridazin-4(1H)-one], for which the IC50 is below 100 nM.

`CCn1cc(-n2ccc(=O)c(COc3ccc4ncc(-c5cccc(F)c5)cc4c3)n2)cn1` [Example 90, 1-(1-ethyl-1H-pyrazol-4-yl)-3-({[3-(3-fluorophenyl)quinolin-6-yl]oxy}methyl)pyridazin-4(1H)-one]: the IC50 is below 100 nM.

On to `CCn1cc(-n2ccc(=O)c(COc3ccc4ncc(-c5ccccc5)cc4c3)n2)cn1` [Example 91, 1-(1-ethyl-1H-pyrazol-4-yl)-3-{[(3-phenylquinolin-6-yl)oxy]methyl}pyridazin-4(1H)-one], for which the IC50 is below 100 nM.

With `Cn1cc(-n2ccc(=O)c(COc3ccc4ncc(-c5cnn(C6CN(C(=O)OC(C)(C)C)C6)c5)cc4c3)n2)cn1` [Example 92, tert-Butyl 3-[4-(6-{[1-(1-methyl-1H-pyrazol-4-yl)-4-oxo-1,4-dihydropyridazin-3-yl]methoxy}quinolin-3-yl)-1H-pyrazol-1-yl]azetidine-1-carboxylate], the IC50 is below 100 nM.

Take `Cn1cc(-n2ccc(=O)c(COc3ccc4ncc(-c5cnn(C6CNC6)c5)cc4c3)n2)cn1` [Example 93, 3-[({3-[1-(Azetidin-3-yl)-1H-pyrazol-4-yl]quinolin-6-yl}oxy)methyl]-1-(1-methyl-1H-pyrazol-4-yl)pyridazin-4(1H)-one]: the IC50 is below 100 nM.

For the molecule `Cn1cc(-n2ccc(=O)c(COc3ccc4ncc(-c5cnn(C6CCNCC6)c5)cc4c3)n2)cn1` [Example 94, 1-(1-methyl-1H-pyrazol-4-yl)-3-[({3-[1-(piperidin-4-yl)-1H-pyrazol-4-yl]quinolin-6-yl}oxy)methyl]pyridazin-4(1H)-one], the IC50 was below 100 nM.

With `COC(=O)c1cnc2ccc(OCc3nn(-c4cnn(C)c4)ccc3=O)cc2c1` [Example 95, Methyl 6-{[1-(1-methyl-1H-pyrazol-4-yl)-4-oxo-1,4-dihydropyridazin-3-yl]methoxy}quinoline-3-carboxylate], the IC50 fell in the range of 100 to 1000 nM.

Regarding `Cn1cc(-n2ccc(=O)c(COc3ccc4ncc(-c5cnn(C6COC6)c5)cc4c3)n2)cn1` [Example 96, 1-(1-Methyl-1H-pyrazol-4-yl)-3-[({3-[1-(oxetan-3-yl)-1H-pyrazol-4-yl]quinolin-6-yl}oxy)methyl]pyridazin-4(1H)-one], the IC50 was below 100 nM.

Turning to `Cn1cc(-n2ccc(=O)c(COc3ccc4nccc(Cl)c4c3)n2)cn1` [Example 97, 3-{[(4-Chloroquinolin-6-yl)oxy]methyl}-1-(1-methyl-1H-pyrazol-4-yl)pyridazin-4(1H)-one], the IC50 is below 100 nM.

`CCc1ccnc2ccc(OCc3nn(-c4cnn(C)c4)ccc3=O)cc12` [Example 98, 3-{[(4-Ethylquinolin-6-yl)oxy]methyl}-1-(1-methyl-1H-pyrazol-4-yl)pyridazin-4(1H)-one]: the IC50 is below 100 nM.

On to `COCCOc1cnc2ccc(SCc3nn(-c4cnn(C)c4)ccc3=O)cc2c1` [Example 99, 3-({[3-(2-Methoxyethoxy)quinolin-6-yl]sulfanyl}methyl)-1-(1-methyl-1H-pyrazol-4-yl)pyridazin-4(1H)-one], for which the IC50 is below 100 nM.

With `CCOc1cnc2ccc(SCc3nn(-c4cnn(C)c4)ccc3=O)cc2c1` [Example 100, 3-{[(3-ethoxyquinolin-6-yl)sulfanyl]methyl}-1-(1-methyl-1H-pyrazol-4-yl)pyridazin-4(1H)-one], the IC50 is below 100 nM.

Turning to `Cn1cc(-n2ccc(=O)c(CSc3ccc4ncccc4c3)n2)cn1` [Example 101, 1-(1-Methyl-1H-pyrazol-4-yl)-3-[(quinolin-6-ylsulfanyl)methyl]pyridazin-4(1H)-one], the IC50 was below 100 nM.

For the molecule `COCCOc1cnc2ccc(NCc3nn(-c4cnn(C)c4)ccc3=O)cc2c1` [Example 102, 3-({[3-(2-Methoxyethoxy)quinolin-6-yl]amino}methyl)-1-(1-methyl-1H-pyrazol-4-yl)pyridazin-4(1H)-one], the IC50 was below 100 nM.

For the molecule `CCOc1cnc2ccc(NCc3nn(-c4cnn(C)c4)ccc3=O)cc2c1` [Example 103, 3-{[(3-ethoxyquinolin-6-yl)amino]methyl}-1-(1-methyl-1H-pyrazol-4-yl)pyridazin-4(1H)-one], the half-inhibitory concentration (IC50) lay within 100 to 1000 nM.

For the molecule `Cn1cc(-n2ccc(=O)c(CNc3ccc4ncccc4c3)n2)cn1` [Example 104, 1-(1-Methyl-1H-pyrazol-4-yl)-3-[(quinolin-6-ylamino)methyl]pyridazin-4(1H)-one], the IC50 was below 100 nM.

For the molecule `Cn1cc(-n2ccc(=O)c(COc3ccc4ncsc4c3)n2)cn1` [Example 105, 3-[(1,3-Benzothiazol-6-yloxy)methyl]-1-(1-methyl-1H-pyrazol-4-yl)pyridazin-4(1H)-one], the IC50 is below 100 nM.

The values are drawn from US20130116231A1, “TYROSINE KINASE INHIBITORS” (Merck Sharp & Dohme Corp., priority 2010, published 2013).
